Data set [1] in a line: Agonist activity at Escherichia coli JM109 LasR assessed as induction of bioluminescence after 8 hrs by luminometric analysis.
The target in data set [2] is T1, CviR transcriptional regulator (Chromobacterium violaceum) (UniProt D3W065).
T1 sequence (whole entry): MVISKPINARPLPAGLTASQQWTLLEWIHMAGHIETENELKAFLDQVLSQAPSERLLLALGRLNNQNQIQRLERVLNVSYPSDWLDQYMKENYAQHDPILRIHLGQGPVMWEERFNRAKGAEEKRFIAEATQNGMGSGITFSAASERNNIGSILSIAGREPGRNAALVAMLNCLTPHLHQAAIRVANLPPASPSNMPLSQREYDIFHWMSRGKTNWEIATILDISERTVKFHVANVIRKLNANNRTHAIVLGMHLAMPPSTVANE
Description: Antagonist activity at Chromobacterium violaceum CV026 CviR assessed as inhibition of C4-HSL-induced violacein production preincubated at 32 degC for day 1 followed by further incubation at 25 degC on day 2 by agar plate assay.

Data set [3] in a line: Stability in 180 mM Tris-HCl buffer at pH 8 measured for 3 hrs by HPLC analysis. It counts as physicochemical. The note with it: pH 8, 3 h.
For data set [4], the target named is T1, CviR transcriptional regulator (Chromobacterium violaceum). Description: Antagonist activity at Chromobacterium violaceum CV026 CviR assessed as inhibition of C4-HSL-induced violacein production at 2 uM preincubated at 32 degC for day 1 followed by further incubation at 25 degC on day 2 by agar plate assay.
Data set [5] has the same target. As to the kind of experiment: Agonist activity at Chromobacterium violaceum CV026 CviR assessed as production of violacein at 20 uM preincubated at 32 degC for day 1 followed by further incubation at 25 degC on day 2 by agar plate assay.

The structures appear in SMILES notation. Calls of active or inactive are those of the source. The calls are words filed in the database; no cut-off is given here.

By EC50 is commonly meant the concentration at which the effect is half-maximal. `CCCCCCCCCC(=O)CC(=O)NN1CCOC1=O`: the EC50 in data set [1] worked out at 2.1 nM. Besides, in data set [2], the inhibition entry was “Active”. Also, the Stability result in data set [3] was “Stable”.

As to `CCCCCCCCCC(=O)CC(=O)N[C@H]1CCOC1=O`, the EC50 in data set [1] is 1.5 nM. Moreover, the inhibition entry in data set [4] was “Active”. Further, in data set [3], the Stability entry is recorded as “Stable”.

On to `CCCC(=O)NN1CCOC1=O`, for which the result in data set [5] was Active.

Consider `CCCC(=O)N[C@H]1CCOC1=O`, for which the outcome in data set [5] was Active.

Values taken from ChEMBL document CHEMBL3739291, “3-AminooxazolidinoneAHL analogs as hydrolytically-stable quorum sensingagonists in Gram-negative bacteria” (Medchemcomm, 2015).
